# US20260184707A1, “PHARMACEUTICAL COMPOUNDS FOR THE TREATMENT OF COMPLEMENT MEDIATED DISORDERS” (ALEXION PHARMACEUTICALS, INC., priority 2022, published 2026)
# Molecular target: T1, Human complement C1s enzyme (Homo sapiens, UniProt P09871)
# T1 construct: purified from human serum, Complement Technology, Inc; purchased Complement Technology, Inc; host or cells: human serum (plasma-derived native protein)
# T1 sequence (P09871 438-688 limits assumed): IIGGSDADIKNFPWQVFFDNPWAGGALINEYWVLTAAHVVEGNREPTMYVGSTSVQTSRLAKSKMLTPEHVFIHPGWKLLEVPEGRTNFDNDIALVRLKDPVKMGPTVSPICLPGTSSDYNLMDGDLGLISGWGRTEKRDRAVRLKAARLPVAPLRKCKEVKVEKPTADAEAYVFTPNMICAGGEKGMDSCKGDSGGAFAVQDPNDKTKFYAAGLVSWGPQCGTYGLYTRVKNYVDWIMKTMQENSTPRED
# T1 sequence (P09871 16-437 partner limits assumed): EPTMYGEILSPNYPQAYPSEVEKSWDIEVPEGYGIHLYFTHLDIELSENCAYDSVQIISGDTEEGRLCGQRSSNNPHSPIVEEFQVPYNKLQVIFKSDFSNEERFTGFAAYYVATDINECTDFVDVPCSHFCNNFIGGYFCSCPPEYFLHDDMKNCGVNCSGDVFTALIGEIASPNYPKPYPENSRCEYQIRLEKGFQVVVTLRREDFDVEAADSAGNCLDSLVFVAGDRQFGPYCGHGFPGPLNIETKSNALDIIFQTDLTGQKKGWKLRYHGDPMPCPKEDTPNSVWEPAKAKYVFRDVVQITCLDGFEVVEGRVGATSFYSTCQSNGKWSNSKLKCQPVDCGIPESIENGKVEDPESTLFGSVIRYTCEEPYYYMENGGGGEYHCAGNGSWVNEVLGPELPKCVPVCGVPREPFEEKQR
# Test: Human C1s enzyme assay
# Assay type: biochemical
# Conditions: human complement C1s enzyme 1.16 nM, substrate Z-L-Lys-SBzl, A405; read-out: IC50 (Stars)
# Protocol: The […] values of the compounds of Table 1 were determined with the human C1s enzyme assay described below. Other standard complement assays are also available.
# Human complement C1s enzyme (purified from human serum, Complement Technology, Inc.) at 1.16 nM final concentration was incubated with test compound at various concentrations for 5 min at room temperature in 50 mM Tris, 1 M NaCl, pH 7.5. A synthetic substrate Z-L-Lys-SBzl and DTNB (Ellman's reagent) were added to final concentrations of 100 μM each. Absorbance at 405 nm (A405) was recorded at 30 second intervals for […] using a microplate spectrophotometer. IC values were calculated by nonlinear regression of complement C1s reaction rates as a function of test compound concentration.
# […]; ND indicates a compound for which the IC50 value is not determined.
row,IC50 [nM],Structure (SMILES)
1,> 1000,"O=C(CN1C(=O)[C@@H](NCCCc2ccccc2)CC[C@H]1c1ccccc1)NCc1cc2cnccc2[nH]1 (relative stereo) [Compound 489, N-((1H-Pyrrolo[3,2-c]pyridine-2-yl)methyl)-2-((3S*,6S*)-2-oxo-6-phenyl-3-((3-phenylpropyl)amino)piperidin-1-yl)acetamide]"
2,> 1000,"C[C@@H](Nc1cnc(-c2ccccc2F)n([C@@H](C)C(=O)NCc2cc3cnccc3[nH]2)c1=O)c1ccc2oc3ccccc3c2c1 (single isomer, unassigned) [Compound 363, (S*)—N-((1H-pyrrolo[3,2-c]pyridine-2-yl)methyl)-2-(5-(((R)-1-(dibenzo[b,d]furan-2-yl)ethyl)amino)-2-(2-fluorophenyl)-6-oxopyrimidin-1(6H)-yl)propenamide]"
3,> 1000,"C[C@H](C(=O)NCc1cc2cnccc2[nH]1)n1c(-c2ccccc2F)ncc(N[C@H](C)c2ccc3oc4ccccc4c3c2)c1=O (single isomer, unassigned) [Compound 364, (R*)—N-((1H-pyrrolo[3,2-c]pyridine-2-yl)methyl)-2-(5-(((R)-1-(dibenzo[b,d]furan-2-yl)ethyl)amino)-2-(2-fluorophenyl)-6-oxopyrimidin-1(6H)-yl)propenamide]"
4,< 100,"O=C(Cn1c(-c2ccccc2F)ncc(N[C@H](CF)c2ccc3oc4ccccc4c3c2)c1=O)NCc1cc2cnccc2[nH]1 (single isomer, unassigned) [Compound 375, (S*)—N-((1H-pyrrolo[3,2-c]pyridine-2-yl)methyl)-2-(5-((1-(dibenzo[b,d]furan-2-yl)-2-fluoroethyl)amino)-2-(2-fluorophenyl)-6-oxopyrimidin-1(6H)-yl)acetamide]"
5,< 100,"O=C(Cn1c(N2CCCCC2)ncc(NC(CF)c2ccc3oc4ccccc4c3c2)c1=O)NCc1cc2cnccc2[nH]1 (single isomer, unassigned) [Compound 441]"
6,< 100,"O=C(Cn1c(-c2ccccc2)ncc(NCCCc2ccccc2)c1=O)NCc1cc2cnccc2[nH]1 [Compound 1, N-((1H-pyrrolo[3,2-c]pyridin-2-yl)methyl)-2-(6-oxo-2-phen-yl-5-((3-phenylpropyl)amino)-pyrimidin-1(6H)-yl)acetamide]"
7,< 100,"O=C(Cn1c(-c2ccccc2)ncc(NCCCCc2ccccc2)c1=O)NCc1cc2cnccc2[nH]1 [Compound 2, N-((1H-pyrrolo[3,2-c]pyridin-2-yl)methyl)-2-(6-oxo-2-phen-yl-5-((4-phenylbutyl)amino)-pyrimidin-1(6H)-yl)acetamide]"
8,< 100,"O=C(Cn1c(-c2ccccc2)ncc(NCCCCCc2ccccc2)c1=O)NCc1cc2cnccc2[nH]1 [Compound 3, N-((1H-pyrrolo[3,2-c]pyridin-2-yl)methyl)-2-(6-oxo-2-phen-yl-5-((5-phenylpentyl)amino)-pyrimidin-1(6H)-yl)acetamide]"
9,< 100,"O=C(Cn1c(-c2ccccc2)ncc(NC(=O)CCCOc2ccccc2)c1=O)NCc1cc2cnccc2[nH]1 [Compound 4, N-(1-(2-(((1H-pyrrolo[3,2-c]pyridin-2-yl)methyl)amino)-2-oxoethyl)-6-oxo-2-phenyl-1,6-dihydropyrimidin-5-yl)-4-phen-oxybutanamide]"
10,< 100,"O=C(Cn1c(-c2ccccc2)ncc(NC(=O)CCc2ccccc2)c1=O)NCc1cc2cnccc2[nH]1 [Compound 5, N-(1-(2-(((1H-pyrrolo[3,2-c]pyridin-2-yl)methyl)amino)-2-oxoethyl)-6-oxo-2-phenyl-1,6-dihydropyrimidin-5-yl)-3-phenylpropanamide]"
11,< 100,"O=C(Cn1c(-c2ccccc2)ncc(NCCOc2ccccc2)c1=O)NCc1cc2cnccc2[nH]1 [Compound 6, N-((1H-pyrrolo[3,2-c]pyridin-2-yl)methyl)-2-(6-oxo-5-((2-phenoxyethyl)amino)-2-phen-ylpyrimidin-1(6H)-yl)aceamide]"
12,< 100,"O=C(Cn1c(-c2ccccc2)ncc(NCCCOc2ccccc2)c1=O)NCc1cc2cnccc2[nH]1 [Compound 7, N-((1H-pyrrolo[3,2-c]pyridin-2-yl)methyl)-2-(6-oxo-5-((3-phenoxypropyl)amino)-2-phenylpyrimidin-1(6H)-yl)-acetamide]"
13,< 100,"O=C(Cn1c(-c2ccccc2)ncc(NC(=O)c2ccc(Oc3ccccc3)cc2)c1=O)NCc1cc2cnccc2[nH]1 [Compound 8, N-(1-(2-(((1H-pyrrolo[3,2-c]pyridin-2-yl)methyl)amino)-2-oxoethyl)-6-oxo-2-phenyl-1,6-dihydropyrimidin-5-yl)-4-phenoxybenzamide]"
14,> 1000,"C[C@H](NC(=O)Cn1c(-c2ccccc2)ncc(NCCCc2ccccc2)c1=O)c1cc2cnccc2[nH]1 [Compound 9, (S)—N-(1-(1H-pyrrolo[3,2-c]pyridin-2-yl)ethyl)-2-(6-oxo-2-phenyl-5-((3-phenylpropyl)amino)pyrimidin-1(6H)-yl)acetamide]"
15,< 100,"C[C@@H](NC(=O)Cn1c(-c2ccccc2)ncc(NCCCc2ccccc2)c1=O)c1cc2cnccc2[nH]1 [Compound 10, (R)-N-(1-(1H-pyrrolo[3,2-c]pyridin-2-yl)ethyl)-2-(6-oxo-2-phenyl-5-((3-phenylpropyl)-amino)pyrimidin-1(6H)-yl)-acetamide]"
16,< 100,"O=C(Cn1c(-c2ccccc2)ncc(NCCCCOc2ccccc2)c1=O)NCc1cc2cnccc2[nH]1 [Compound 11, N-((1H-pyrrolo[3,2-c]pyridin-2-yl)methyl)-2-(6-oxo-5-((4-phenoxybutyl)amino)-2-phenylpyrimidin-1(6H)-yl)acetamide]"
17,100 to 1000,"C[C@@H](NC(=O)Cn1c(-c2ccccc2)cnc(NCCCc2ccccc2)c1=O)c1cc2cnccc2[nH]1 [Compound 12, (R)-N-(1-(1H-pyrrolo[3,2-c]pyridin-2-yl)ethyl)-2-(2-oxo-6-phenyl-3-((3-phenylpropyl)-amino)pyrazin-1(2H)-yl)-acetamide]"
18,100 to 1000,"O=C(Cn1c(-c2ccccc2)cnc(NCCCc2ccccc2)c1=O)N[C@H](CO)c1cc2cnccc2[nH]1 [Compound 13, (S)-N-(2-hydroxy-1-(1H-pyr-rolo[3,2-c]pyridin-2-yl)ethyl)-2-(2-oxo-6-phenyl-3-((3-phen-ylpropyl)amino)pyrazin-1(2H)-yl)acetamide]"
19,> 1000,"O=C(Cn1c(-c2ccccc2)cnc(NCCCc2ccccc2)c1=O)N[C@@H](CO)c1cc2cnccc2[nH]1 [Compound 14, (R)-N-(2-hydroxy-1-(1H-pyr-rolo[3,2-c]pyridin-2-yl)ethyl)-2-(2-oxo-6-phenyl-3-((3-phen-ylpropyl)amino)pyrazin-1(2H)-yl)acetamide]"
20,> 1000,"O=C(Cn1c(-c2ccccc2)ncc(NCCCc2ccccc2)c1=O)N[C@H](CO)c1cc2cnccc2[nH]1 [Compound 15, (S)-N-(2-hydroxy-1-(1H-pyr-rolo[3,2-c]pyridin-2-yl)ethyl)-2-(6-oxo-2-phenyl-5-((3-phen-ylpropyl)amino)pyrimidin-1(6H)-yl)acetamide]"
21,> 1000,"O=C(Cn1c(-c2ccccc2)ncc(NCCCc2ccccc2)c1=O)N[C@@H](CO)c1cc2cnccc2[nH]1 [Compound 16, (R)-N-(2-hydroxy-1-(1H-pyr-rolo[3,2-c]pyridin-2-yl)ethyl)-2-(6-oxo-2-phenyl-5-((3-phen-ylpropyl)amino)pyrimidin-1(6H)-yl)acetamide]"
22,< 100,"O=C(Cn1c(-c2ccccc2)cnc(NCCCc2ccccc2)c1=O)NCc1cc2cnccc2[nH]1 [Compound 17, N-((1H-pyrrolo[3,2-c]pyridin-2-yl)methyl)-2-(2-oxo-6-phen-yl-3-((3-phenylpropyl)amino)-pyrazin-1(2H)-yl)acetamide]"
23,< 100,"O=C(Cn1c(-c2ccccc2)ncc(NC(=O)CCCc2ccc(Oc3ccccc3)cc2)c1=O)NCc1cc2cnccc2[nH]1 [Compound 18, N-(1-(2-(((1H-pyrrolo[3,2-c]pyridin-2-yl)methyl)amino)-2-oxoethyl)-6-oxo-2-phenyl-1,6-dihydropyrimidin-5-yl)-4-(4-phenoxyphenyl)butanamide]"
24,< 100,"O=C(Cn1c(-c2ccccc2)ncc(NCc2ccc(-c3ccccc3)cc2)c1=O)NCc1cc2cnccc2[nH]1 [Compound 19, N-((1H-pyrrolo[3,2-c]pyridin-2-yl)methyl)-2-(5-(([1,1′-biphenyl]-4-ylmethyl)amino)-6-oxo-2-phenylpyrimidin-1(6H)-yl)acetamide]"
25,< 100,"O=C(Cn1c(-c2ccccc2)ncc(NCc2ccc(Oc3ccccc3)cc2)c1=O)NCc1cc2cnccc2[nH]1 [Compound 20, N-((1H-pyrrolo[3,2-c]pyridin-2-yl)methyl)-2-(6-oxo-5-((4-phenoxybenzyl)amino)-2-phenylpyrimidin-1(6H)-yl)-acetamide]"
